One molecule from article PMC6121621, “A Short Half-Life αIIbβ3 Antagonist ANTP266 Reduces Thrombus Formation” (International Journal of Molecular Sciences, 2018) can be followed below.

This assay deals with T1, integrin αIIbβ3 (Homo sapiens, UniProt P05106+P08514).
T1 construct: gene ITGA2B; Purified human integrin αIIbβ3; with integrin β3 (ITGB3, P05106)
The experiment in a line: ELISA: inhibition of purified human αIIbβ[…] binding to immobilized fibrinogen.

T1 sequence (P08514 32-887): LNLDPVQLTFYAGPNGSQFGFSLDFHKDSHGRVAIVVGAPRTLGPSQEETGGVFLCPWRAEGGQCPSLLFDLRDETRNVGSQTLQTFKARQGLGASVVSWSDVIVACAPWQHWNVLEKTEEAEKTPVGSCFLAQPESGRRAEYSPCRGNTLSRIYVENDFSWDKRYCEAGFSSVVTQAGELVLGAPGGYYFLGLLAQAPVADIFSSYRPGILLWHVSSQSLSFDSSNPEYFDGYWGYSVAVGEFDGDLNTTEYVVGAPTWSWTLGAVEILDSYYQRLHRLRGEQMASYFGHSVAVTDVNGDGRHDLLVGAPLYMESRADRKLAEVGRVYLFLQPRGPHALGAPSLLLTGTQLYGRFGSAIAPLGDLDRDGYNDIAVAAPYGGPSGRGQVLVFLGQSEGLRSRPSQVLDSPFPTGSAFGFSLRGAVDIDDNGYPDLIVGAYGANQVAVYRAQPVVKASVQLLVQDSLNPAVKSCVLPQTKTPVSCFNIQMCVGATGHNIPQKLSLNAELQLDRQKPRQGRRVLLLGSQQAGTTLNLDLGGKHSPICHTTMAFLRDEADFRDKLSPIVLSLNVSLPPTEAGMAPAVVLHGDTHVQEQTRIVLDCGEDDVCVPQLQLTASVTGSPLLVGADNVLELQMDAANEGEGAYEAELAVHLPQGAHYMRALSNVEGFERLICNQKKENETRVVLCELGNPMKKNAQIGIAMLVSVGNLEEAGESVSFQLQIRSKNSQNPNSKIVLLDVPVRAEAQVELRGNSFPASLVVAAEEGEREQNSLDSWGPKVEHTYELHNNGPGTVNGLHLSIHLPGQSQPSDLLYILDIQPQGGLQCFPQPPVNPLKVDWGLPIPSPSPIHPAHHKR
T1 sequence (P08514 891-1039): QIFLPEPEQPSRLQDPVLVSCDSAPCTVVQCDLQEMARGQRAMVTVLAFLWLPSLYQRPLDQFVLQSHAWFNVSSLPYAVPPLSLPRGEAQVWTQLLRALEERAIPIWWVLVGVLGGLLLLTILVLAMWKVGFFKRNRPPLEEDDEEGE
T1 sequence (P05106 27-788): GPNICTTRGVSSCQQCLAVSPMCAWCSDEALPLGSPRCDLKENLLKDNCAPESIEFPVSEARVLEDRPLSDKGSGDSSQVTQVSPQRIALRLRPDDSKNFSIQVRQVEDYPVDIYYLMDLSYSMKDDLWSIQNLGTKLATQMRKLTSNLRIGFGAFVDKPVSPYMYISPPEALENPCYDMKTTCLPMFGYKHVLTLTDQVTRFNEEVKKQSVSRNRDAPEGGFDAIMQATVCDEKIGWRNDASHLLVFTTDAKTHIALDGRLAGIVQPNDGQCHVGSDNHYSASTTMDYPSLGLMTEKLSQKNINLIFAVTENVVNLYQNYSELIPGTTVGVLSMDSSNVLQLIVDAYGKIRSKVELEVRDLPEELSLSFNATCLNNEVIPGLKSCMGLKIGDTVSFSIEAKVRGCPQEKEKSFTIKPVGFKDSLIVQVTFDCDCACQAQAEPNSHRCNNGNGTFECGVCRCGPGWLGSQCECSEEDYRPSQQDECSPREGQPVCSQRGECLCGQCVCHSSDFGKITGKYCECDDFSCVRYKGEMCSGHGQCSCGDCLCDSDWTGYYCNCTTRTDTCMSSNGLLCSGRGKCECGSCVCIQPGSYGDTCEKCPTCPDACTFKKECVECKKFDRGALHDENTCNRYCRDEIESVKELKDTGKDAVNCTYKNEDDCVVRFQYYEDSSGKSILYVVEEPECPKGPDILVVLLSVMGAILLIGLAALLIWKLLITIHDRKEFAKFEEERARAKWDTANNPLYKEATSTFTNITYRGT

For `COc1ccc(S(=O)(=O)NC(Cc2ccc3cc(OCCN4CCNCC4)ccc3c2)C(=O)O)cc1` (stereo not shown) [ANTP266, 2-((4-methoxyphenyl)sulfonamido)-3-(6-(2-(piperazin-1-yl)ethoxy)naphthalene-2-yl) propanoic acid], the half-maximal inhibitory concentration (IC50) – broadly, the concentration that inhibits the measured activity by half – was 370 nM.
